pKi: −log10 of the molar value.
Legend:
[1] = test system: clinical MRSA and MSSA strains isolated from a patient's catheter; assay: planktonic antimicrobial assay, clinical isolates; assay type: cell-based, Staphylococcus aureus
Experimental: Effect of COX enzyme inhibitors or PGE2 EP receptor antagonists on microbial growth. The antimicrobial activity of selective COX enzyme inhibitor or PGE2 EP receptor antagonist on the growth of C. albicans DAY185 (A), S. aureus NRS383 (B) and MRSA and MSSA clinical isolates (C). Growth of C. albicans and S. aureus was monitored for up to 24 h in medium alone or supplemented with DMSO or EP receptor antagonists or COX enzyme inhibitor at physiologically relevant concentrations. Data shown are representative of three independent experiments.
Strains and growth conditions. The methicillin-resistant S. aureus strain NRS383 used in all experiments was obtained from the Network on Antimicrobial Resistance in S. aureus (NARSA) data bank. NRS383 is positive for the toxic shock syndrome toxin (tst) and 6-toxin genes. SJ-MRSA 6 and SJ-SA5 are methicillin-resistant (MRSA) and methicillin-sensitive (MSSA) clinical S. aureus strains respectively isolated from a patient's catheter. […]
C. albicans and S. aureus were grown as described above. […] Cells were grown with shaking as described above, and 1 ml aliquots were removed each hour in duplicate and optical density at 600 nm measured (OD600) by spectrophotometer (Biomate 3S, Thermo Scientific).

[2] = test system: planktonic S. aureus; assay: MIC/MBC assay (CLSI broth dilution); assay type: cell-based; settings: Staphylococcus aureus
Experimental: The CLSI reference method for broth dilution antimicrobial susceptibility testing of bacteria was used to determine the MIC of L-161, 982 (CLSI, 2008). Based on inhibition of S. aureus in the planktonic assay, TSB was used for all antimicrobial susceptibility testing of S. aureus. Cells were diluted in sterile TSB to a final concentration of 5.0×10^5 CFU/ml and 200-μl aliquots (1×10^5 CFU/well) were added to wells of sterile round-bottom 96-well plates. A stock solution of L-161, 982 was diluted in sterile TSB prior to addition to cells. Drug concentrations tested ranged from 1 to 100 μg/ml and were tested in triplicate. The plates were incubated at 37° C. for 24 h and the OD600 measured using a microplate spectrophotometer (BioTek Instruments, Synergy 2). Bacteriostatic or bactericidal activity was assessed by plating 20 μl of broth from all wells with no visible growth on TSA plates and plates incubated at 37° C. for 24-48 h. The MBC was the lowest drug concentration that prevented growth.

[3] = test system: MRSA; assay: checkerboard broth microdilution synergy test with oxacillin; assay type: cell-based, Staphylococcus aureus; settings: combination with oxacillin
Experimental: Due to the newfound antimicrobial activity of L-161, 982 against S. aureus, the checkerboard method (14) with the broth microdilution method, was used to test for synergy with oxacillin, a drug similar to methicillin used more commonly in the clinical setting. Synergy was determined using the fractional inhibitory concentration index (FICI) method (14, 15). With this method, the MIC of the antibiotic compound in combination is divided by the MIC of the compound alone, giving the fractional contribution of each drug component in combination. Quotients for all compounds in combination are summed and drug interactions scored using the formula:
FICI=((MIC AcombA+B)/MICA)+((MIC BcombA+B)/MICB)
The stock solutions and serial twofold dilutions of oxacillin ranged from 8× the MIC to 32× below the MIC and that of L-161, 982 ranged from 8× the MIC to 2000× below the MIC. Oxacillin was serially diluted along the ordinate, while L-161, 982 was diluted along the abscissa. The resulting checkerboard contained each combination of two drugs, with wells that contain the highest concentration of each antibiotic at opposite corners. Each microtiter well was inoculated with 1×10^5 CFU. The plates were incubated at 37° C. for 24 h and the OD600 measured using a microplate spectrophotometer. […]

[4] = molecular target: human EP4 receptors (Homo sapiens, UniProt P35408); settings: cited from earlier work
[5] = molecular target: IP (Homo sapiens, UniProt P43119); settings: cited from earlier work
Sequence of IP (P43119 whole entry): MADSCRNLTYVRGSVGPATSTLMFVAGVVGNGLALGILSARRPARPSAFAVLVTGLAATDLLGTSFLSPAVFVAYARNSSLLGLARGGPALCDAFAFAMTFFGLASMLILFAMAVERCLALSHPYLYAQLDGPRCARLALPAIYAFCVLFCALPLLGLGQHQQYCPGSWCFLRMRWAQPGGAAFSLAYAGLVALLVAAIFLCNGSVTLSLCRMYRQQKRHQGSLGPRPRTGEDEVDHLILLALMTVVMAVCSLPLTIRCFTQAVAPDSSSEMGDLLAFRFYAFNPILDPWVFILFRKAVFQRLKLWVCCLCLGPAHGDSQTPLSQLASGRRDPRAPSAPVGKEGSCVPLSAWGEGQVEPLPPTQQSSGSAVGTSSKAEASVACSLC

Sequence of human EP4 receptors (P35408 whole entry): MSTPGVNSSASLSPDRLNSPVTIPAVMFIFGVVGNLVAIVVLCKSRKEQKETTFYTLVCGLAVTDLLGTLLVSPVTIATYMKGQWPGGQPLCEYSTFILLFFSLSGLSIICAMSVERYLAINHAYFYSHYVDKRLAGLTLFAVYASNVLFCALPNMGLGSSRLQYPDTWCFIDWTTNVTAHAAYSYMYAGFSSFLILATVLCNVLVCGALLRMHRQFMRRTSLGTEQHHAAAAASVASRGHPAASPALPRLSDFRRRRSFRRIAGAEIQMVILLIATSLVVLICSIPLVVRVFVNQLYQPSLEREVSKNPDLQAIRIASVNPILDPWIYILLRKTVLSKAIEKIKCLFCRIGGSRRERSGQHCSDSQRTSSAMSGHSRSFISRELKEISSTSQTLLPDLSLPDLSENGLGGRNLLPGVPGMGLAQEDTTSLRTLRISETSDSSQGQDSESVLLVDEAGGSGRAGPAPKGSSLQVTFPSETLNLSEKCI

## CCCCc1nn(-c2ccccc2C(F)(F)F)c(=O)n1Cc1ccc(-c2ccccc2S(=O)(=O)NC(=O)c2sccc2C)cc1 [L-161, 982, N-[[4′-[[3-Butyl-1,5-dihydro-5-oxo-1-[2-(trifluoromethyl)phenyl]-4H-1,2,4-triazol-4-yl]methyl][1,1′-biphenyl]-2-yl]sulfonyl]-3-methyl-2-thiophenecarboxamide]
[1]
  growth of clinical MRSA and MSSA strains: inhibited growth
[2]
  MBC: 100 µg/mL
[2]; TSB, 24 h, read-out: minimum inhibitory concentration (MIC)
  MIC: 50 µg/mL
[3]
  fractional inhibitory concentration (FIC) index: 0.563
[4]
  pKi: 7.62
[5]
  pKi: 5.17
